Calls of active or inactive are those of the source. No rule for the calls is given here.
biological target: Steroidogenic factor 1 (Homo sapiens) (UniProt Q13285); test: dose-dependent inverse agonism at SF1 – cell-based, luminescence, dose response, selectivity assay for LRH-1 inverse agonist project, late-stage follow-up (AID 651977); conditions: SF1 cell-based luciferase reporter
Sequence (Q13285 whole entry, looked up): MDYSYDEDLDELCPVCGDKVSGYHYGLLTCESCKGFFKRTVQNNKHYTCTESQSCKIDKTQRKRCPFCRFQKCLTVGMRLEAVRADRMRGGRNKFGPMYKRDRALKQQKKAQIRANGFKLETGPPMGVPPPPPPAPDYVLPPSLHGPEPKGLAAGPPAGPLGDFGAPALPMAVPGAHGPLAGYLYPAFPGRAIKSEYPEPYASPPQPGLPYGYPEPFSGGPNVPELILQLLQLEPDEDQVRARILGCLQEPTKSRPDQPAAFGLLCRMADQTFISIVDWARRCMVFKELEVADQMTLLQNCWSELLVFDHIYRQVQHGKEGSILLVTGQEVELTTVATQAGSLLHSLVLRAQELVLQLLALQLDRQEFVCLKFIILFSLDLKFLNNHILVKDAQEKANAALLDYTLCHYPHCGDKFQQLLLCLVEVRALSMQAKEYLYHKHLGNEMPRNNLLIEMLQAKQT

Structure (SMILES) | IC50
COc1ccc(NC(=O)COC(=O)c2c(-c3ccccc3)noc2C)cc1 | 3.19 µM
Cc1cc(OCC(=O)Nc2nccs2)c2c(C)cc(=O)oc2c1 | > 35.9 µM (inactive)
CCCc1nnc(SCC(=O)Nc2ccc(C(=O)OCC)cc2)o1 | > 35.9 µM (inactive)
Cc1ccc(NC(=O)CSc2sc3c(O)cc(=O)[nH]c3c2C#N)c(F)c1 | > 35.9 µM (inactive)
COc1ccc(NC(=O)CSc2sc3c(O)cc(=O)[nH]c3c2C#N)c(OC)c1 | > 35.9 µM (inactive)
Cc1nn(CC(=O)Nc2ccc3c(c2)OCCO3)c(C)c1[N+](=O)[O-] | > 35.9 µM (inactive)
CCOc1ccc(OCCC(=O)OCC(=O)Nc2ccc3c(c2)OCCO3)cc1 | > 35.9 µM (inactive)
CCOc1ccc(NC(=O)CSc2nc3[nH]ncc3c(=O)[nH]2)cc1 | > 35.9 µM (inactive)
CCCc1cc(=O)oc2cc(OCC(=O)NCCc3ccc(S(N)(=O)=O)cc3)ccc12 | inactive
CCCc1cc(=O)oc2c(C)c(OCC(=O)NCCN3CCOCC3)ccc12 | 5.64 µM
Cc1cc(C)c2nc(NC(=O)c3ccc([N+](=O)[O-])o3)sc2c1 | > 35.9 µM (inactive)
CCc1cc(=O)oc2c(C)c(OCC(=O)NCCN3CCOCC3)ccc12 | inactive
CCCc1cc(=O)oc2cc(OCC(=O)NCc3ccccn3)ccc12 | > 35.9 µM (inactive)
NC(=O)C1CCN(C(=O)COc2ccc3c4c(c(=O)oc3c2)CCCC4)CC1 | > 35.9 µM (inactive)
Cc1cc(C)c2sc(NC(=O)c3ccc([N+](=O)[O-])o3)nc2c1 | > 35.9 µM (inactive)
COC(=O)c1ccc(NC(=O)CSc2ccc(-c3ccccn3)nn2)cc1 | > 35.9 µM (inactive)
COc1ccc(NC(=O)CSc2nc(N)c(-c3ccccc3)c(=O)[nH]2)cc1 | 9.92 µM
CCOc1ccc(NC(=O)CSc2nncc(=O)n2N)cc1 | > 35.9 µM (inactive)
CCOc1ccc(NC(=O)COC(=O)CC2CCCCC2)cc1 | > 35.9 µM (inactive)
COc1ccc(NC(=O)COC(=O)c2cc(S(=O)(=O)N3CCCC3)ccc2O)cc1 | > 35.9 µM (inactive)
O=C1CCCN2N=C(SCC(=O)Nc3ccc(Br)cc3)SC2=N1 | > 35.9 µM (inactive)
CCOc1ccc(OCCN2C(=O)NC(Cc3c[nH]c4ccccc34)C2=O)cc1 (centres undefined) | inactive
COc1ccc(CCNC(=O)CSc2ccc(NC(C)=O)cc2)cc1OC | 8.79 µM

Structure (SMILES) | IC50
Cc1cc(=O)oc2c(C)c(OCC(=O)NC3CC(C)(C)NC(C)(C)C3)ccc12 | > 35.9 µM (inactive)
O=C(COC(=O)c1ccc(=O)n(Cc2ccccc2)n1)Nc1ccc2c(c1)OCCO2 | > 35.9 µM (inactive)
COc1ccc(CCNC(=O)CSc2nn3c(=O)c(C)nnc3s2)cc1OC | 5.7 µM
CC1SC(C)C(=O)N(CC(=O)Nc2ccc3c(c2)OCO3)C1=O (centres undefined) | > 35.9 µM (inactive)
O=C(COC(=O)CCN1C(=O)C2CC=CCC2C1=O)NCCc1ccc(F)cc1 (centres undefined) | > 35.9 µM (inactive)
COC(=O)c1ccc(NC(=O)COc2cccc(-n3cnnn3)c2)cc1 | > 12 µM (inactive)
N#CCSc1ccccc1NC(=O)CN1C(=O)C2CC=CCC2C1=O (centres undefined) | > 35.9 µM (inactive)
O=c1[nH]c(Nc2ccc3c(c2)OCCO3)nnc1Cc1ccccc1 | > 12 µM (inactive)
Cc1cc(Br)ccc1NC(=O)CSc1nnc(CN2CCOCC2)n1C | > 35.9 µM (inactive)
O=C(COc1ccc2c3c(c(=O)oc2c1)CCCC3)NCc1ccccn1 | > 35.9 µM (inactive)
COc1ccc(C2(C)NC(=O)N(CC(=O)NCCC3=CCCCC3)C2=O)cc1OC (centres undefined) | > 12 µM (inactive)
O=C(CSc1nnc(CNC(=O)c2ccccc2F)o1)Nc1ccc2c(c1)OCCO2 | > 35.9 µM (inactive)
COC(=O)c1ccc(CNC(=O)COC(=O)c2cc(Cl)nc(Cl)c2)cc1 | inactive
CCCN(CC(=O)Nc1ccc(C(C)=O)cc1)CC(=O)Nc1ccccc1C | inactive
O=C(CSc1nc(=O)n2cc(Cl)ccc2n1)Nc1ccc2c(c1)OCCO2 | inactive
COc1ccc(-n2c(N)c(C(=O)NCc3cccnc3)sc2=S)cc1 | > 35.9 µM (inactive)
CCOc1ccc(NC(=O)COC(=O)c2ccc3c(c2)OCCO3)cc1 | > 12 µM (inactive)
O=C(Nc1ccc(Br)cn1)c1ccc([N+](=O)[O-])o1 | > 35.9 µM (inactive)
COC(=O)c1ccc(NC(=O)CN2CCN(c3ccc(Cl)cc3)CC2)cc1 | > 35.9 µM (inactive)
CCCc1cc(=O)oc2c(C)c(OCC(=O)NCCCn3ccnc3)ccc12 | 6.68 µM
CCc1cc(=O)[nH]c(SCC(=O)Nc2ccc3c(c2)OCCO3)n1 | > 35.9 µM (inactive)
Cc1ccc(NC(=O)COC(=O)c2cc(=O)c3ccccc3o2)c(Br)c1 | > 35.9 µM (inactive)
CC(=O)c1ccc(OC(C)C(=O)OCC(=O)NCCc2ccccc2)cc1 (centres undefined) | > 35.9 µM (inactive)

Structure (SMILES) | IC50
CC(=O)Nc1ncc(Cc2cc(Cl)ccc2Cl)s1 | inactive
O=C(OCC(=O)N1CCN(C(=O)COC(=O)c2ccc(O)cc2O)CC1)c1ccc(O)cc1O | 3.55 µM
Cc1ccc(NC(=O)CSc2nc3[nH]c(=O)cc(O)c3s2)c(Br)c1 | > 35.9 µM (inactive)
Cc1sc(NC(=O)C(C)C)c(C(=O)Nc2ccccc2)c1C | 9.22 µM
Cc1cccc(NC(=O)COC(=O)Cc2cccs2)c1C | > 35.9 µM (inactive)
CC(=O)Nc1ccc(N=c2cc([N+](=O)[O-])cc(Cl)n2O)cc1 | > 12 µM (inactive)
O=C(COc1ccc2c3c(c(=O)oc2c1)CCC3)NCc1ccncc1 | > 35.9 µM (inactive)
Cc1cc(Br)ccc1NC(=O)CN1C(=O)C2CC=CCC2C1=O (centres undefined) | 0.351 µM
COC(=O)c1ccc(NC(=O)CSc2nncn2-c2cccnc2)cc1 | > 35.9 µM (inactive)
COc1ccc(CCNC(=O)COC(=O)c2cc(Cl)nc(Cl)c2)cc1 | > 35.9 µM (inactive)
O=C(Nc1nc2c(Cl)cccc2s1)c1ccc([N+](=O)[O-])o1 | > 12 µM (inactive)
CCCc1cc(=O)oc2cc(C)cc(OCC(=O)NC3CC3)c12 | 2.67 µM
Cc1ccn2c(=O)nc(SCC(=O)Nc3ccc4c(c3)OCCO4)nc2c1 | > 35.9 µM (inactive)
O=C(CSc1nnc(CNC(=O)c2c(F)cccc2F)o1)Nc1ccc2c(c1)OCCO2 | inactive
CC(=O)c1ccc(NC(=O)C(C)O/N=C(\N)c2ccccc2)cc1 (centres undefined) | inactive
CCOc1ccc(NC(=O)COC(=O)COc2cccc3c2OC(C)(C)C3)cc1 | > 35.9 µM (inactive)
COc1ccccc1Oc1nnnn1-c1ccc(C(N)=O)cc1 | inactive
O=C(NCC1CCCO1)c1ccc(NC(=O)c2cccc([N+](=O)[O-])c2)cc1 (centres undefined) | 1.02 µM
COc1ccc(CCNC(=O)COC(=O)Cc2ccccc2[N+](=O)[O-])cc1 | > 12 µM (inactive)
Cc1ccc(-c2csc(NC(=O)c3ccc([N+](=O)[O-])o3)n2)cc1 | > 35.9 µM (inactive)
COc1ccc(NC(=O)CSc2ccc3c(c2)OCCO3)cc1 | > 35.9 µM (inactive)
O=C(NCc1ccco1)c1nn(-c2ccccc2)c(=O)c2ccccc12 | > 35.9 µM (inactive)
O=C(COC(=O)c1ccc[n+]([O-])c1)Nc1ccc([N+](=O)[O-])cc1Cl | > 35.9 µM (inactive)

Structure (SMILES) | IC50
O=C(Nc1ccc(S(=O)(=O)N2CCOCC2)cc1)c1cccc([N+](=O)[O-])c1 | > 12 µM (inactive)
COc1ccc(CCNC(=O)COC(=O)C23CC4CC(CC(C4)C2)C3)cc1 | 4.42 µM
Cc1cccc(NC(=O)COC(=O)CN2C(=O)c3ccccc3C2=O)c1C | > 35.9 µM (inactive)
Cc1ccc(NC(=O)COC(=O)C(NS(=O)(=O)c2ccc(Cl)cc2)C(C)O)c(Br)c1 (centres undefined) | > 35.9 µM (inactive)
COCC(=O)NC1CCN(CC(=O)Nc2ccc(OC)cc2[N+](=O)[O-])CC1 | > 35.9 µM (inactive)
COc1ccc(NC(=O)CSc2nnc3ccc(-c4cccnc4)nn23)cc1OC | 1.59 µM
CCOc1ccc(NC(=O)CN2CCN(CC(=O)Nc3ccc(OC)cc3)CC2)cc1 | > 35.9 µM (inactive)
CCOc1ccc(NC(=O)CSc2nnc(C(C)C)n2CC)cc1 | > 35.9 µM (inactive)
COCCn1c(C)cc(/C=C(\C#N)C(=O)OCC(=O)Nc2ccc(S(N)(=O)=O)cc2)c1C | > 35.9 µM (inactive)
COc1ccc(CCNC(=O)CSc2nc3[nH]c(=O)cc(O)c3s2)cc1 | > 35.9 µM (inactive)
COc1ccc(CCNC(=O)COC(=O)c2cccn2C)cc1 | > 35.9 µM (inactive)
Cc1ccc2cccc(OCC(=O)NCCC3=CCCCC3)c2n1 | 2.22 µM
COC(=O)c1ccc(NC(=O)CSc2nn3c(=O)c(C)nnc3s2)cc1 | > 35.9 µM (inactive)
COC(=O)c1ccc(NC(=O)CSc2nc3ncccc3[nH]2)cc1 | > 35.9 µM (inactive)
O=C(Nc1ccccc1)c1oc2ccccc2c1NC(=O)C1CC1 | inactive
CCn1c(SCC(=O)Nc2ccc(Cl)cc2)nnc1C1CC1 | > 35.9 µM (inactive)
Cc1ccc(NC(=O)COC(=O)C(NS(=O)(=O)c2ccc(Cl)cc2)C(C)O)cc1C (centres undefined) | 2.28 µM
COc1ccc(NS(=O)(=O)c2ccc(OCC(=O)N3CCN(C)CC3)cc2)cc1Cl | 9.99 µM
COc1ccc(NC(=O)CN2C(=O)NC3(CCCC3)C2=O)cc1 | > 35.9 µM (inactive)
CCc1c(C)nc(SCC(=O)Nc2ccc3c(c2)OCCO3)[nH]c1=O | 7.83 µM
